Columns and labels:
[1] = test system: Mucor sp.; parameters: key: +=fungicidal; conditions: cited from earlier work
[2] = test system: Rhodotorula pilimanae; parameters: key: +=fungicidal; conditions: references 4, 5; cited from earlier work
[3] = test system: Rhizoctonia solani; parameters: key: +=fungicidal; conditions: cited from earlier work
[4] = test system: Aureobasidium pullulans; parameters: key: +=fungicidal; conditions: cited from earlier work
[5] = test system: Fusarium solani; parameters: key: +=fungicidal; conditions: cited from earlier work
[6] = test system: Candida krusei; parameters: key: +=fungicidal; conditions: cited from earlier work
[7] = test system: Penicillium radulatum; parameters: key: +=fungicidal; conditions: cited from earlier work
[8] = test system: Fusarium moliniforme; parameters: key: +=fungicidal; conditions: cited from earlier work
[9] = test system: Candida albicans; parameters: key: +=fungicidal; conditions: references 3, 8; cited from earlier work
[10] = test system: Aspergillus niger; parameters: key: +=fungicidal; conditions: cited from earlier work
[11] = test system: Penicillium digitatum; parameters: key: +=fungicidal; conditions: cited from earlier work
[12] = test system: Aspergillus fumigatus; parameters: key: +=fungicidal; conditions: cited from earlier work
[13] = test system: Candida kefyr; parameters: key: +=fungicidal; conditions: cited from earlier work
[14] = test system: Botrytis cinera; parameters: key: +=fungicidal; conditions: cited from earlier work
[15] = test system: Geotricum candidum; parameters: key: +=fungicidal; conditions: references 2, 6, 7, 8; cited from earlier work
[16] = test system: Rhizopus sp.; parameters: key: +=fungicidal; conditions: cited from earlier work
[17] = test system: Verticillium dahliae; parameters: key: +=fungicidal; conditions: cited from earlier work
[18] = test system: Candida rugosa; parameters: key: +=fungicidal; conditions: cited from earlier work
[19] = test system: Trichoderma atroviridae; parameters: key: +=fungicidal; conditions: cited from earlier work
[20] = test system: Candida parapsilosis; parameters: key: +=fungicidal; conditions: cited from earlier work
[21] = test system: Alternaria alternate; parameters: key: +=fungicidal; conditions: cited from earlier work
[22] = test system: Ustilago maydis; parameters: key: +=fungicidal; conditions: cited from earlier work
[23] = test system: Thielaviopsis basicola; parameters: key: +=fungicidal; conditions: cited from earlier work
[24] = test system: Penicillium expansum; parameters: key: +=fungicidal; conditions: cited from earlier work
[25] = test system: Cladosporium herbarum; parameters: key: +=fungicidal; conditions: cited from earlier work
[26] = test system: Candida tropicalis; parameters: key: +=fungicidal; conditions: cited from earlier work
[27] = test system: Fusarium oxysporum; parameters: key: +=fungicidal; conditions: cited from earlier work
[28] = test system: Trichophyton sp.; parameters: key: +=fungicidal; conditions: cited from earlier work
[29] = test system: Saccharomyces cerevisiae; parameters: key: +=fungicidal; conditions: references 3, 5, 8; cited from earlier work
[30] = test system: Phytophthora infestans; parameters: key: +=fungicidal; conditions: cited from earlier work
[31] = test system: Penicillium raistrikii; parameters: key: +=fungicidal; conditions: cited from earlier work
[32] = test system: Laccaria bicolor; experiment: ECM fungal inhibition (Table 1); assay type: cell-based; parameters: key: +=fungicidal; conditions: unpublished results
From the text: (§1) In addition to laboratory studies, ECM fungi that exist in high elevation sites of the Rocky Mountains and that are also culturable in artificial media are studied. These include: Amanita muscaria, Boletus edulis, Hebeloma crustuliniform, Laccaria bicolor, Laccaria laccata, Lactarius deliciosus, Lactarius rufus, Suillus brevipes, Suillus tomentosus, Rhizopogon occidentalis, and Rhizopogon subcaerulescens. Cultures of these fungi are available from the laboratory of Kropp, Utah State University or are obtained from the American Type Culture Collection. Syringomycin-containing extracts from P. syringae 31R and SnoMax® are prepared by methods used for extraction of cyclic lipodepsipeptides (FIG. 2) (1). Briefly, equal volumes of acidified acetone are added to bacterial cultures and SnoMax® suspensions. The mixtures are centrifuged and evaporated to give the aqueous extracts for testing. SnoMax® itself is suspended in water (0.1 g per ml), and the suspension is tested for fungicidal activities.
(§2) For testing, the linear growth of the various ECM fungi in the presence and absence (controls) of extracts and SnoMax® suspensions are analyzed. Sterile agar strips (5 cm×1.5 cm, cut from fresh agar plates and placed in sterile plastic petri dishes) are inoculated at one end with a 5 mm diameter inoculum plug of the ECM fungus to be tested. Paper disks (1 cm diameter) are soaked in filter-sterilized extracts and SnoMax® suspensions and placed at the opposite end of the agar strip. Control strips with disks soaked in sterile distilled water are also be prepared. The concentrations of the extracts to be used are based on the independent determination of the minimal inhibitory concentrations needed to inhibit the in vitro growth of the yeast R. pilimanae. Two levels of 2-fold dilutions above and below this concentration are used. The plates are sealed with Parafilm and incubated at room temperature for several weeks. The extent of linear growth is measured and compared. The ages of the inoculum cultures are standardized and all inoculum disks are taken from the actively growing colony margin. […]

[33] = test system: Suillus tomentosus; experiment: ECM fungal inhibition (Table 1); assay type: cell-based; parameters: key: +=fungicidal; conditions: unpublished results
From the text: as §1, §2

[34] = test system: Suillus brevipes; experiment: ECM fungal inhibition (Table 1); assay type: cell-based; parameters: key: +=fungicidal; conditions: unpublished results
From the text: as §1, §2

[35] = test system: Ceratocystis fimbriata; parameters: key: +=fungicidal; conditions: cited from earlier work
[36] = test system: Aspergillus flavus; parameters: key: +=fungicidal; conditions: reference 1; cited from earlier work
[37] = test system: Cryptococcus neoformans; parameters: key: +=fungicidal; conditions: cited from earlier work
[38] = test system: Microsporium sp.; parameters: key: +=fungicidal; conditions: cited from earlier work
[39] = test system: Geotricum citri-aurantii; parameters: key: +=fungicidal; conditions: cited from earlier work
[40] = test system: Rhodotorula pilimanae; experiment: Effect of pH on the antifungal activity of Snomax suspensions (FIG. 4); assay type: cell-based; conditions: R. pilimanae lawn, 28° C., 36 hours
Protocol: SnoMax was mixed and suspended with water for 1 hour at room temperature, the pHs were adjusted to 6, 8, or 10 by titrating with dilute solutions of NaOH and HCl, and the suspensions incubated at the final pHs for 1 hour at room temperature. The suspensions were then freeze dried. The freeze dried powders were extracted with acidified acetone, centrifuged, and the supernatant fractions recovered. Acetone was evaporated off at 45° C. and the residues serial diluted (2 fold) in water. Ten microliter aliquots of 2^−1 (a), 2^−2 (b), and 2^−3 (c) dilutions were deposited on a freshly prepared lawn of Rhodotorula pilimanae onto potato-dextrose-casamino acids (PDA-CA) agar medium prepared in Petri dishes. A 10 microliter aliquot of pure syringomycin E (1 mg per ml) was also applied (d). The Petri dishes were incubated at 28° C. for 36 hours. Result: pH 8 and 10 treatments eliminated the antifungal activities of snomax suspension and of syringomycin E, the latter serving as positive control.

[41] = test system: Rhodotorula pilimanae; experiment: Fungal inhibition, spot test on lawn (Table 1, FIG. 1-3); assay type: cell-based; conditions: HPLC peak material purified from P. syringae 31R cultures
Protocol: Ten μL quantities of undiluted filtrate (1) and multiple aliquots of 2-fold dilutions of the filtrate (2-9) were applied to potato dextrose agar plates with freshly streaked R. pilimanae. The plate was incubated for 1 day at 28° C. The cleared spots show fungicidal growth inhibition.
Ten μL quantities of undiluted (1) and 2^−1 (2), 2^−2 (3) and 2^−3 (4) dilutions of the extracts were applied to potato dextrose agar plates with freshly streaked R. pilimanae. The plate was incubated for 1 day at 28° C. The cleared spots show fungicidal growth inhibition.
SnoMax® (1 g) was suspended in 5 ml H2O. One ml was mixed with 1 ml of acidified acetone, centrifuged, and the supernatant was recovered. An aliquot (200 μL) of the extract was evaporated to near dryness at 40° C. H2O (100 μL) was added and the mixture evenly suspended. Ten μL each of the SnoMax® suspension, extract, and H2O control were spotted onto a fresh lawn of R. pilimanae on PDA medium and incubated at 28° C. for 24 h.
SnoMax® was obtained from the snow making operation of a local Utah ski resort. One gram was suspended in water and an aliquot was extracted with acidified acetone. The extract was dried, suspended in water, and the solutions were tested for inhibitory activity against R. pilimanae grown as a lawn on potato dextrose agar medium (1) (FIG. 3). This assay is determines syringomycin production.

In the case of syringomycin [SR], the Fungal species inhibited [1] is given as “+”, the Fungal species inhibited [2] is given as “^c+” and the Fungal species inhibited [3] is given as “+”. The Fungal species inhibited [4] was “+”, the Fungal species inhibited [5] was “+” and the Fungal species inhibited [6] was “+”. For the same substance, the Fungal species inhibited [7] was “+”, the Fungal species inhibited [8] was “+” and the Fungal species inhibited [9] was “+”. For the same substance, the Fungal species inhibited [10] was “+”, the Fungal species inhibited [11] was “+” and the Fungal species inhibited [12] was “+”. The Fungal species inhibited [13] was “+”, the Fungal species inhibited [14] was “+” and the Fungal species inhibited [15] was “+”. The Fungal species inhibited [16] was “+”, the Fungal species inhibited [17] was “+” and the Fungal species inhibited [18] was “+”. The Fungal species inhibited [19] was “+”, the Fungal species inhibited [20] was “+” and the Fungal species inhibited [21] was “+”. For the same substance, the Fungal species inhibited [22] was “+”, the Fungal species inhibited [23] was “+” and the Fungal species inhibited [24] was “+”. For the same substance, the Fungal species inhibited [25] was “+”, the Fungal species inhibited [26] was “+” and the Fungal species inhibited [27] was “+”. The Fungal species inhibited [28] was “+”, the Fungal species inhibited [29] was “+” and the Fungal species inhibited [30] was “+”. For the same substance, the Fungal species inhibited [31] was “+”, the Fungal species inhibited [32] was “+” and the Fungal species inhibited [33] was “+”. For the same substance, the Fungal species inhibited [34] was “+”, the Fungal species inhibited [35] was “+” and the Fungal species inhibited [36] was “+”. For the same substance, the Fungal species inhibited [37] was “+”, the Fungal species inhibited [38] was “+” and the Fungal species inhibited [39] was “+”.
For syringomycin E, the “antifungal activity after pH treatment” value ([40]; pH 8, 1 hour at room temperature) was “eliminated”, the “antifungal activity after pH treatment” value ([40]; pH 10, 1 hour at room temperature) was “eliminated” and the “growth inhibitory activity against R. pilimanae, other yeasts and filamentous fungi” value [41] was “growth inhibitory activity”.
